Measurements taken from the kinase profiling compilation of Christmann-Franck et al. (2016).
Values belong to the compound of their own block, whether it stands above or below them.

Experiments:
Experiment in all cases: radiometric filter-binding kinase assay
[1] = tested on: AKT2 (human), P31751 [S474D]
[2] = target: BTK (human) (UniProt Q06187)
[3] = target: CSNK1D (human) (UniProt P48730)
[4] = target: CSNK2A1 (human) (UniProt P68400)
[5] = target: DYRK2 (human) (UniProt Q92630)
[6] = target: FLT1 (human) (UniProt P17948)
[7] = target: HIPK2 (human) (UniProt Q9H2X6)
[8] = target: INSR (human) (UniProt P06213)
[9] = target: INSRR (human) (UniProt P14616)
[10] = target: MAPK1 (human) (UniProt P28482)
[11] = target: MAPK11 (human) (UniProt Q15759)
[12] = target: MAPK14 (human) (UniProt Q16539)
[13] = target: MAPK15 (human) (UniProt Q8TD08)
[14] = target: MARK3 (human) (UniProt P27448)
MARK3 (human), sequence (P27448 whole entry, looked up): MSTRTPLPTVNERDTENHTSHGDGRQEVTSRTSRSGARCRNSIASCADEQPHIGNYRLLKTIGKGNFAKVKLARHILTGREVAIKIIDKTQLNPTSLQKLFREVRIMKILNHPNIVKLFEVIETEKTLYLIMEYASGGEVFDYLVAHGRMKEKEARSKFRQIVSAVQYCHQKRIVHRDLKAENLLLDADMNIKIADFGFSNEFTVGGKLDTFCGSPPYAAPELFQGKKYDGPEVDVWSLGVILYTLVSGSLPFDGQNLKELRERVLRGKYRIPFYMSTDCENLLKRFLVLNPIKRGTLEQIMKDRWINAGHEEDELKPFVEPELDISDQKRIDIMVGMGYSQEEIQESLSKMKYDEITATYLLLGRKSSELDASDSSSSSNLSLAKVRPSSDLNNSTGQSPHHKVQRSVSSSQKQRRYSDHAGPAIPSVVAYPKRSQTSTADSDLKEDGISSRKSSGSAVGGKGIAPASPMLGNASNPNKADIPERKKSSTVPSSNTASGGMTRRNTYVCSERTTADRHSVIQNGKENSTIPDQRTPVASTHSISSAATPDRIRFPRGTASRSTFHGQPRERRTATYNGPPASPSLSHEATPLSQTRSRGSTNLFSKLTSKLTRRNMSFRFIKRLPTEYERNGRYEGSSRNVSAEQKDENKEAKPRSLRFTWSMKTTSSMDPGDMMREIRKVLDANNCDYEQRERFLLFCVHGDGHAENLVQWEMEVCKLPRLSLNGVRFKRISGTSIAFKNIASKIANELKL

[15] = target: MKNK2 (human) (UniProt Q9HBH9)
MKNK2 (human), sequence (Q9HBH9 whole entry, looked up): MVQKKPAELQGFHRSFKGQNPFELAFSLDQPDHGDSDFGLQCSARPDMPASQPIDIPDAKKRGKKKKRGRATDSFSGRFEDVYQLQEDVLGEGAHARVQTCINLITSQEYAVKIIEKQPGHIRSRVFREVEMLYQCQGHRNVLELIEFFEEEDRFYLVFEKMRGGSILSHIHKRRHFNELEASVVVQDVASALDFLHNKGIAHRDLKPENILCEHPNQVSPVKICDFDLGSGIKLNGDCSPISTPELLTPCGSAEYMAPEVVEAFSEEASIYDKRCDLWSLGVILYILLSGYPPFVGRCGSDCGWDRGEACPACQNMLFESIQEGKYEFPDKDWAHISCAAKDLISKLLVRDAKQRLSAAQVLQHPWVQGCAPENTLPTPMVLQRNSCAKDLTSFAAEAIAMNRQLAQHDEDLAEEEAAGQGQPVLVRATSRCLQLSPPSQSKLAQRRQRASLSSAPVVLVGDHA

[16] = target: NEK2 (human) (UniProt P51955)
NEK2 (human), sequence (P51955 whole entry, looked up): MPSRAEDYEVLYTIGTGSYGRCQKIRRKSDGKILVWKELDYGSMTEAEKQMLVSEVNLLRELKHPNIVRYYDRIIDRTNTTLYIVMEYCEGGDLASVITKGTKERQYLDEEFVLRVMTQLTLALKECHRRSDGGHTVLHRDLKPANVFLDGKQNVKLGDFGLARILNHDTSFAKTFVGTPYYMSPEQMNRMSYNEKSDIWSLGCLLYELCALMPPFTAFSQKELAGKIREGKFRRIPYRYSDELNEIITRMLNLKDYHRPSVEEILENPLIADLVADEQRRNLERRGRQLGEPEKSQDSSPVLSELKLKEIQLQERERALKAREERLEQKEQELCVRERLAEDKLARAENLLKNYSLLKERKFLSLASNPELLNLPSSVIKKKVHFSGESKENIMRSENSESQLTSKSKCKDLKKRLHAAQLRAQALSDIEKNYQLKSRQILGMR

[17] = target: NEK6 (human) (UniProt Q9HC98)
NEK6 (human), sequence (Q9HC98 whole entry, looked up): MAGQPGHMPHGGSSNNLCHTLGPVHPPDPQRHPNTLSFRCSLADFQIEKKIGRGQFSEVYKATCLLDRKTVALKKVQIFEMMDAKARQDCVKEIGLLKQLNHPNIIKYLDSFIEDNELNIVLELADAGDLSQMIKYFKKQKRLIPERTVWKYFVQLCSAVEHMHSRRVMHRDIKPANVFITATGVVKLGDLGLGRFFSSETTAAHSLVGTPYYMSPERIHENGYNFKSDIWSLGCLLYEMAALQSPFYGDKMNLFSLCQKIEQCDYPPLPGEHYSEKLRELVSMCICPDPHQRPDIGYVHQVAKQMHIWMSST

[18] = target: PRKCA (human) (UniProt P17252)
[19] = target: RPS6KA1 KD1 KD2 (human) (UniProt Q15418)
[20] = target: RPS6KA5 KD1 KD2 (human) (UniProt O75582)
[21] = tested on: RPS6KB1 (human), P23443 [T412E]
RPS6KB1 (human), P23443 [T412E], sequence (P23443 whole entry T412E, looked up): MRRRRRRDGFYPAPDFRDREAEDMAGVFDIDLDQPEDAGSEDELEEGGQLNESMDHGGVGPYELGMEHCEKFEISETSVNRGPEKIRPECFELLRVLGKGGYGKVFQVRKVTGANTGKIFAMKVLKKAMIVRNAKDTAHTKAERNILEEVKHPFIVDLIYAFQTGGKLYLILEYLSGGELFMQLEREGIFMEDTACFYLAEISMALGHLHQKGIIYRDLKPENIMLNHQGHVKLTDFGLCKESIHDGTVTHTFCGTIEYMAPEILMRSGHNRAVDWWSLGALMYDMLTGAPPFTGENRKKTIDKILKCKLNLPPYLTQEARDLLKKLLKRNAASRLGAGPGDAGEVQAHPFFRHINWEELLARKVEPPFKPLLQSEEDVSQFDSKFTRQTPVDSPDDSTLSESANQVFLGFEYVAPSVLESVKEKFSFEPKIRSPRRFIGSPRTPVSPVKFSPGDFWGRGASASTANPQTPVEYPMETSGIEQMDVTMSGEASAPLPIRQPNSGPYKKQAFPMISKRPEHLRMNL

[22] = target: SRPK1 (human) (UniProt Q96SB4)
[23] = target: YES1 (human) (UniProt P07947)

BTK (human), sequence (Q06187 whole entry, looked up): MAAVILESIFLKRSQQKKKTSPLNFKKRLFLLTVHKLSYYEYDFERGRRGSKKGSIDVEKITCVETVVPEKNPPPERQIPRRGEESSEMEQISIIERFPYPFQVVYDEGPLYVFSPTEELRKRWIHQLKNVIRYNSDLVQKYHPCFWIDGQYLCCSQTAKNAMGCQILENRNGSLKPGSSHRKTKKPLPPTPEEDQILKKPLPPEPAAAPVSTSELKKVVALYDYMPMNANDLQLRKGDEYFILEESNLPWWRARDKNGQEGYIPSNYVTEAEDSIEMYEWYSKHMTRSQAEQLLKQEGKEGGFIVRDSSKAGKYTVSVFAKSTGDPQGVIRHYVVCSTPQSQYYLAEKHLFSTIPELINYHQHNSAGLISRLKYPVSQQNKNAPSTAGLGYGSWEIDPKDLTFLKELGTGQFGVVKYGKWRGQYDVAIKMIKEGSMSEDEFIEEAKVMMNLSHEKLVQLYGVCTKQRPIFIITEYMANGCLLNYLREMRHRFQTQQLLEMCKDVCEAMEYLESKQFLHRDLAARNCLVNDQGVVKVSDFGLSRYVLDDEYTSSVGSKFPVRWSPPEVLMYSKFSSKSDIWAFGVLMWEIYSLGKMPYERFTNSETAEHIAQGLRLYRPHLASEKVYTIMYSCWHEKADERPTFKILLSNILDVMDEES
DYRK2 (human), sequence (Q92630 whole entry, looked up): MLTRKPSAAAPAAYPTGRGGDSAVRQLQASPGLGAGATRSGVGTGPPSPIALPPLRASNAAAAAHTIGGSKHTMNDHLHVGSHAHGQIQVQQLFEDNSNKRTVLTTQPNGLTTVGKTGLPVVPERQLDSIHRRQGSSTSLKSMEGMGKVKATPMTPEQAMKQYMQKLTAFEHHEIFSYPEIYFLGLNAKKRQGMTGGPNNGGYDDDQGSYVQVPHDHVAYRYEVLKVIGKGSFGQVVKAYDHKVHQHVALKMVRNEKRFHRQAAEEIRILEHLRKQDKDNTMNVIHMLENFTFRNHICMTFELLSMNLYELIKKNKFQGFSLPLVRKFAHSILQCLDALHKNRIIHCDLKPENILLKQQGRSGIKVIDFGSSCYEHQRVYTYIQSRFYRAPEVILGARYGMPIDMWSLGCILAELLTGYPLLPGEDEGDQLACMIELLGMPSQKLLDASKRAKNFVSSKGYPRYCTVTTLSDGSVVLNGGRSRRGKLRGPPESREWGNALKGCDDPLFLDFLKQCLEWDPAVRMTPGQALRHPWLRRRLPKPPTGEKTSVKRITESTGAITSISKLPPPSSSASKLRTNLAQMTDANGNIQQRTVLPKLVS
CSNK1D (human), sequence (P48730 whole entry, looked up): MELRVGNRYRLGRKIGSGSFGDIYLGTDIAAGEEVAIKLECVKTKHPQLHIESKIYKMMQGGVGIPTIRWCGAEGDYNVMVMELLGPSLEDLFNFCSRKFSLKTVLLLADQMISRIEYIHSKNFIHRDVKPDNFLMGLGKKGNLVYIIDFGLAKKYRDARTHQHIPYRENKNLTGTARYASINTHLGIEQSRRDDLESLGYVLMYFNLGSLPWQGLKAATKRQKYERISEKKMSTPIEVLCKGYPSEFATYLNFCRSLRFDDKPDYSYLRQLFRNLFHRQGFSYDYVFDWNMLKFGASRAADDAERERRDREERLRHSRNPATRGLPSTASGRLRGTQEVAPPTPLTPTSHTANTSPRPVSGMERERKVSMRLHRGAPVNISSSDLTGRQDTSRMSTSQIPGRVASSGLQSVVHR

residual activity ([1]; compound 0.1 µM): 81%
residual activity ([1]; compound 1.0 µM): 84%
residual activity ([2]; compound 0.1 µM): 79%
residual activity ([2]; compound 1.0 µM): 78%
residual activity ([3]; compound 0.1 µM): 118%
residual activity ([3]; compound 1.0 µM): 120%
residual activity ([4]; compound 0.1 µM): 115%
residual activity ([4]; compound 1.0 µM): 106%
residual activity ([5]; compound 0.1 µM): 81%
residual activity ([5]; compound 1.0 µM): 87%
residual activity ([6]; compound 0.1 µM): 80%
residual activity ([6]; compound 1.0 µM): 84%
residual activity ([7]; compound 0.1 µM): 103%
residual activity ([7]; compound 1.0 µM): 112%
residual activity ([8]; compound 0.1 µM): 104%
residual activity ([9]; compound 0.1 µM): 86%
residual activity ([9]; compound 1.0 µM): 80%
residual activity ([10]; compound 0.1 µM): 96%
residual activity ([10]; compound 1.0 µM): 101%
residual activity ([11]; compound 0.1 µM): 107%
residual activity ([11]; compound 1.0 µM): 104%
residual activity ([12]; compound 0.1 µM): 88%
residual activity ([12]; compound 1.0 µM): 89%
residual activity ([14]; compound 0.1 µM): 79%
residual activity ([14]; compound 1.0 µM): 79%
residual activity ([15]; compound 0.1 µM): 87%
residual activity ([15]; compound 1.0 µM): 91%
residual activity ([16]; compound 0.1 µM): 107%
residual activity ([16]; compound 1.0 µM): 102%
residual activity ([17]; compound 0.1 µM): 79%
residual activity ([17]; compound 1.0 µM): 89%
residual activity ([18]; compound 0.1 µM): 101%
residual activity ([18]; compound 1.0 µM): 100%
residual activity ([19]; compound 0.1 µM): 74%
residual activity ([19]; compound 1.0 µM): 78%
residual activity ([20]; compound 0.1 µM): 80%
residual activity ([20]; compound 1.0 µM): 82%
residual activity ([21]; compound 0.1 µM): 100%
residual activity ([21]; compound 1.0 µM): 98%
residual activity ([22]; compound 0.1 µM): 93%
residual activity ([22]; compound 1.0 µM): 97%
residual activity ([23]; compound 0.1 µM): 85%
residual activity ([23]; compound 1.0 µM): 85%
SMILES: Cn1c(=O)c2c(ncn2C)n(C)c1=O
residual activity ([13]; compound 0.1 µM): 88%
residual activity ([13]; compound 1.0 µM): 95%

residual activity ([1]; compound 1.0 µM): 88%
residual activity ([1]; compound 10.0 µM): 61%
residual activity ([2]; compound 1.0 µM): 100%
residual activity ([2]; compound 10.0 µM): 83%
residual activity ([3]; compound 1.0 µM): 81%
residual activity ([3]; compound 10.0 µM): 43%
residual activity ([4]; compound 1.0 µM): 95%
residual activity ([4]; compound 10.0 µM): 70%
residual activity ([5]; compound 1.0 µM): 99%
residual activity ([5]; compound 10.0 µM): 77%
residual activity ([6]; compound 1.0 µM): 112%
residual activity ([6]; compound 10.0 µM): 116%
residual activity ([7]; compound 1.0 µM): 84%
residual activity ([7]; compound 10.0 µM): 34%
residual activity ([8]; compound 1.0 µM): 94%
residual activity ([8]; compound 10.0 µM): 96%
residual activity ([9]; compound 1.0 µM): 78%
residual activity ([9]; compound 10.0 µM): 45%
residual activity ([10]; compound 1.0 µM): 81%
residual activity ([10]; compound 10.0 µM): 74%
residual activity ([11]; compound 1.0 µM): 91%
residual activity ([11]; compound 10.0 µM): 74%
residual activity ([12]; compound 1.0 µM): 91%
residual activity ([12]; compound 10.0 µM): 78%
residual activity ([14]; compound 1.0 µM): 100%
residual activity ([14]; compound 10.0 µM): 94%
residual activity ([15]; compound 1.0 µM): 98%
residual activity ([15]; compound 10.0 µM): 87%
residual activity ([16]; compound 1.0 µM): 83%
residual activity ([16]; compound 10.0 µM): 81%
residual activity ([17]; compound 1.0 µM): 98%
residual activity ([17]; compound 10.0 µM): 93%
residual activity ([18]; compound 1.0 µM): 77%
residual activity ([18]; compound 10.0 µM): 31%
residual activity ([19]; compound 1.0 µM): 83%
residual activity ([19]; compound 10.0 µM): 46%
residual activity ([20]; compound 1.0 µM): 71%
residual activity ([20]; compound 10.0 µM): 31%
residual activity ([21]; compound 1.0 µM): 102%
residual activity ([21]; compound 10.0 µM): 68%
residual activity ([22]; compound 1.0 µM): 98%
residual activity ([22]; compound 10.0 µM): 65%
residual activity ([23]; compound 1.0 µM): 94%
residual activity ([23]; compound 10.0 µM): 49%
SMILES: O=C1Nc2nc(-c3c(O)cccc3OCC3CC3)cc(C3CCCNC3)c2CO1 (stereo unspecified)
residual activity ([13]; compound 1.0 µM): 53%
residual activity ([13]; compound 10.0 µM): 10%
